# Measured values: ChEMBL document CHEMBL1201862, “PubChem BioAssay data set” (2004)
# Activity calls are given as the source filed them.
# Experiments:
# [1] = molecular target: T1, Corticotropin-releasing factor receptor 2/Corticotropin-releasing factor-binding protein (Homo sapiens, UniProt P24387+Q13324); test: Dose Response confirmation of uHTS hits for small molecule antagonists of the CRF-binding protein and CRF-R2 receptor complex.; format: functional; settings: read-out: IC50_Mean
# T1 sequence (Q13324 whole entry): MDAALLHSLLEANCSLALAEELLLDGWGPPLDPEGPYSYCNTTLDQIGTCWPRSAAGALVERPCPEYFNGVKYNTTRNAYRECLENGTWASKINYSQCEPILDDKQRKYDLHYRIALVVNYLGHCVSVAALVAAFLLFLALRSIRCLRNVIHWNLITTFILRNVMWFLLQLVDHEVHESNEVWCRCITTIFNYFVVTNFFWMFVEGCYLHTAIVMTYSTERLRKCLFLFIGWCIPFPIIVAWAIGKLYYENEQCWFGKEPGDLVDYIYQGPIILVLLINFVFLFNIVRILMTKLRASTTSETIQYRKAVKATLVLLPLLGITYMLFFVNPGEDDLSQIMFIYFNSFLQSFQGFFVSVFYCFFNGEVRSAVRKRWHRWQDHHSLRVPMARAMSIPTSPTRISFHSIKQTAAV
# T1 sequence (P24387 whole entry): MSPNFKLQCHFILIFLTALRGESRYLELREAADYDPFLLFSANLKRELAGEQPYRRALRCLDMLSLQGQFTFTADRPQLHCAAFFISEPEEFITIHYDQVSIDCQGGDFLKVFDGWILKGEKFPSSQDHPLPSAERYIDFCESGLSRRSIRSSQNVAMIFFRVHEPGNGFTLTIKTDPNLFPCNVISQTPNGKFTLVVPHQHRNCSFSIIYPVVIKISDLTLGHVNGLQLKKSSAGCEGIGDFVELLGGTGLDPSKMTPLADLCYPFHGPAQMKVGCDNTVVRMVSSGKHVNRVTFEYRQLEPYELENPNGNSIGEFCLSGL
# [2] = CRF-BP/CRF-R2 complex antagonists, dose response, cell-based, uHTS hits, 384-well (AID 651639); format: functional, Homo sapiens; settings: read-out: IC50_Mean
# [3] = molecular target: T1, Corticotropin-releasing factor receptor 2/Corticotropin-releasing factor-binding protein; test: activators of CRF receptor 2 with binding protein – uHTS hits, confirmation (AID 602473); format: functional; settings: read-out: EC50_Mean
# [4] = molecular target: Dual specificity tyrosine-phosphorylation-regulated kinase 1A (Rattus norvegicus, UniProt Q63470); format: biochemical, Homo sapiens
# [5] = ZM109 Env clade C HIV-1 fusion inhibitors, dose response, HeLa effector, CEM target cells, luciferase, cherry-pick (AID 652058); format: functional, cell-based
# [6] = molecular target: T2, Sentrin-specific protease 1 (Homo sapiens, UniProt Q9P0U3); test: potency of human SENP1 inhibitors, dose response, biochemical, kinetic FRET (AID 651697); format: functional; settings: read-out: IC50_Mean
# T2 sequence (Q9P0U3 whole entry): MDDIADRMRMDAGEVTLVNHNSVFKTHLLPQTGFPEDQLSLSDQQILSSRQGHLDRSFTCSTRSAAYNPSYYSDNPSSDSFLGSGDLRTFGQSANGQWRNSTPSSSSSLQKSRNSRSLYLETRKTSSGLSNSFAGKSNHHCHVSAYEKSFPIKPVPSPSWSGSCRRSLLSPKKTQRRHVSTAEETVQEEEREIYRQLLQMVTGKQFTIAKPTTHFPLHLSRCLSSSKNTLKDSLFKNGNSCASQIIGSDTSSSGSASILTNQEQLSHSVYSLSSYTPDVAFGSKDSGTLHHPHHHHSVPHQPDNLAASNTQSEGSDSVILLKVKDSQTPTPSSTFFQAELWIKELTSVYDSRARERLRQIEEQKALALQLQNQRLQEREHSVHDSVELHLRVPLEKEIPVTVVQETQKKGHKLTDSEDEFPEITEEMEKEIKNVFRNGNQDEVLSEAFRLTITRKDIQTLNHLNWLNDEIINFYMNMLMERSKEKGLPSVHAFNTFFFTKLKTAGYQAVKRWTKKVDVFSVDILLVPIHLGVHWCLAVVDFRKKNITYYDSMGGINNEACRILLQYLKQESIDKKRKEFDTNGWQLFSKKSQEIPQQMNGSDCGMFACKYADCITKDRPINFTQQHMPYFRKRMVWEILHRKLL
# [7] = off-target signal loss in HeLa-CEM21 co-culture – HeLa F-luc CTL cells, cherry-picked, counter-screen for HIV-1 Env fusion inhibitor project, dose response (AID 652040); format: functional, cell-based;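 further: potency for signal decrease marking cytotoxic or nonspecific inhibition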
# [8] = molecular target: T2, Sentrin-specific protease 1; test: Dose response confirmation of small molecule inhibitors of the catalytic domain of the SUMO protease, SENP1 in a FRET assay.; format: functional; settings: read-out: IC50_Mean
# [9] = non-specific cell cytotoxicity, dose response, cytotoxicity control for PAX8 inhibitor project, plate reader, dry powder samples (AID 743021); format: functional, cell-based
# [10] = NIH:OVCAR-3 ovarian cancer cell cytotoxicity, dose response, PAX8 inhibitor project, plate reader, dry powder samples (AID 743044); format: functional, cell-based
# Paired box protein Pax-8 = Paired box protein Pax-8 (Homo sapiens, UniProt Q06710); test: inhibitors of PAX8-driven TPO luciferase reporter, dose response, RMG-I cells, cherry-pick (AID 687027); format: functional, cell-based;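 further: luciferase reporter driven by Pax8 target thyroperoxidase promoter measured by SteadyGlo luminescence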
# Vero = test: Vero cell toxicity, dose response, cytotoxicity control, plate reader, cherry-pick samples (AID 687020); format: functional, cell-based; settings: Chlorocebus sabaeus
# [11] = molecular target: T3, Heat shock factor protein 1 (Mus musculus, UniProt P38532); test: inhibition of MG132-induced HSE-luciferase signal, confirmation, cell-based, NIH3T3, luminescence, dose retest (AID 2382); format: functional;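 further: NIH3T3 fibroblasts with HSF1-driven luciferase reporter stressed by proteasome inhibitor MG132; luminescence from HSF1-driven luciferase expression after 8 hours of MG132 stress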
# T3 sequence (P38532 whole entry): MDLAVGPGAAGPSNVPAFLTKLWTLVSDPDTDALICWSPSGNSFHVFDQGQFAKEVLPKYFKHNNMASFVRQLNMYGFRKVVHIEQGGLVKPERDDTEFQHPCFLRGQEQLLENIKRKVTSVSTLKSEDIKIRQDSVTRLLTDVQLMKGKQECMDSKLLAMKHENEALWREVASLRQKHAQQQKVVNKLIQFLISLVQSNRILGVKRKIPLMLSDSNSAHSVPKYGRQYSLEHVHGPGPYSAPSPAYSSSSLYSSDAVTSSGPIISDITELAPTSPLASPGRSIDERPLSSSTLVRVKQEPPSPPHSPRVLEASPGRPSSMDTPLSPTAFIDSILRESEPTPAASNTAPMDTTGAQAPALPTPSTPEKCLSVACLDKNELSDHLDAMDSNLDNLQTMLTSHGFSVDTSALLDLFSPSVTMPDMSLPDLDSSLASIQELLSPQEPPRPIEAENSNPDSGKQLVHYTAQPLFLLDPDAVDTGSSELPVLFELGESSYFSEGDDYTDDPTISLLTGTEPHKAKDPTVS
# [12] = CEM21 lymphoblast cell cytotoxicity, dose response, cytotoxicity control for viral fusion inhibitor project, CellTiter-Glo luminescence, cherry-picked (AID 652042); format: functional, cell-based;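 further: potency for signal decrease meaning cytotoxicity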
# [13] = inhibitors of HIV Env-driven cell fusion, dose response, cherry-pick (AID 652057); format: functional, cell-based
# [14] = Luminescence Cell-Based Dose Retest to Confirm Inhibitors of Cancer Stem Cells. [Related pubchem assays (depositor defined):AID2717, AID2721]; format: functional; settings: Homo sapiens
# [15] = inhibitors of clade B AD8 Env fusion, dose response, cell-based, cherry-pick (AID 652062); format: functional;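 further: luciferase signal from cell-cell fusion driven by HIV-1 clade B AD8 Env; potency is for inhibitors of fusion seen as a drop in luminescence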
# [16] = HEp-2 cell cytotoxicity, dose response, cytotoxicity control for RSV inhibitor project, HTS (AID 2410); format: functional; settings: human respiratory syncytial virus
# [17] = ADAM10 protease inhibitors, dose response, selectivity assay for ADAM17 exosite inhibitor project, biochemical, FRET peptide substrate, recombinant human ADAM10 (AID 743259);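 further: ADAM10 enzyme cleaving a FRET peptide substrate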
# [18] = molecular target: Disintegrin and metalloproteinase domain-containing protein 17 (Homo sapiens, UniProt P78536); test: exosite inhibitors of ADAM17, dose response, biochemical (AID 743260)
# Sequence of Disintegrin and metalloproteinase domain-containing protein 17 (P78536 whole entry, the tested form may be a part): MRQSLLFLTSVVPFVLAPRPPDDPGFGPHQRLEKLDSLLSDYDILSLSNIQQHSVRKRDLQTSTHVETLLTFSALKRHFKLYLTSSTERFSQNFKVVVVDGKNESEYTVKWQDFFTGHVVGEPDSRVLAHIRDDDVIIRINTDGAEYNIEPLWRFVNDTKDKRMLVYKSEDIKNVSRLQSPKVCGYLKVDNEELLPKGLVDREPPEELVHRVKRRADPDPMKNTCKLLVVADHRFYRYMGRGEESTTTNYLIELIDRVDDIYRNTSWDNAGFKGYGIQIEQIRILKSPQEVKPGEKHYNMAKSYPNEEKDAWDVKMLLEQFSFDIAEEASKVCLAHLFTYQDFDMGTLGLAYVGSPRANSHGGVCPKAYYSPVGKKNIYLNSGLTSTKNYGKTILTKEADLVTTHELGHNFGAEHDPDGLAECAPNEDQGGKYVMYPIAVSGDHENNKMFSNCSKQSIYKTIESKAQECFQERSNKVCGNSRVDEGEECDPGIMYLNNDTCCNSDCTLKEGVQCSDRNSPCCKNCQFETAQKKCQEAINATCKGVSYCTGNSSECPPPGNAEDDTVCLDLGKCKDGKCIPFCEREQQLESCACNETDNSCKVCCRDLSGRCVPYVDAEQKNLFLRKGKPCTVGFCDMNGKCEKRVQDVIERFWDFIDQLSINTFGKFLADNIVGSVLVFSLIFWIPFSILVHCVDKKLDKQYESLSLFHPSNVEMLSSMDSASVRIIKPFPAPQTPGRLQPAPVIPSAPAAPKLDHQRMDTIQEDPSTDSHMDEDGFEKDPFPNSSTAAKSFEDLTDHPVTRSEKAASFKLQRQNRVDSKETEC
# Sequence of Paired box protein Pax-8 (Q06710 whole entry): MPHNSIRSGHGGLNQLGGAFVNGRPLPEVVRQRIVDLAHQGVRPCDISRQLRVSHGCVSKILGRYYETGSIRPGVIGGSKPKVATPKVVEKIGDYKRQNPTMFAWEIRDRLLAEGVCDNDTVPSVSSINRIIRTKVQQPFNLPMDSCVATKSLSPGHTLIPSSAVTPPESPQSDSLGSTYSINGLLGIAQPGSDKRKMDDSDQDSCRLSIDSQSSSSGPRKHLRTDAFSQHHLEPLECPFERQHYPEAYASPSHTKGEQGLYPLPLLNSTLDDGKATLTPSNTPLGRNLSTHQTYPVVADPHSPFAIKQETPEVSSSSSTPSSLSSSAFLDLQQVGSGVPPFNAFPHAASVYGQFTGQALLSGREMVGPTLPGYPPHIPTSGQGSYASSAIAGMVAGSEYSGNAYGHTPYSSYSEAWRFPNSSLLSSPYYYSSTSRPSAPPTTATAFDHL
smiles,measurement,setting,value
Cc1ccc([C@H]2C(C(=O)O)=CC[C@@H](c3ccc(Cl)cc3)N2S(=O)(=O)c2ccc(C)cc2)cc1,IC50,[1],19.8 µM (active)
same,IC50,[2],> 20 µM (inactive)
same,EC50,[3],25.4 µM (active)
Cc1ccc2c(c1)C(=C(C#N)C#N)CCN2,AC50,[4],5.69 µM (active)
same,AC50,[5],2 µM (active)
same,IC50,[6],20.1 µM (inactive)
same,AC50,[7],42.3 µM (active)
same,IC50,[8],11 µM (active)
COc1ccc(S(=O)(=O)N(C)C[C@@H]2OCCCC[C@H](C)Oc3ccc(NS(=O)(=O)c4ccc(Cl)cc4)cc3C(=O)N([C@H](C)CO)C[C@@H]2C)cc1,AC50,[9],58.4 µM (active)
same,AC50,[10],26.9 µM (active)
same,AC50,Paired box protein Pax-8,4.8 µM (active)
CC1(C)CC(NC(=O)COc2ccccc2Cl)CC(C)(C)N1,AC50,Vero,33.7 µM (active)
same,EC50,[11],2.65 µM (active)
Cc1nn(Cc2ccc(Cl)c(Cl)c2)c(C)c1NC(=O)c1cc(-c2ccc3c(c2)OCO3)on1,AC50,[12],20.6 µM (active)
same,AC50,[5],28.7 µM (active)
same,AC50,[13],20.3 µM (active)
same,AC50,[7],> 70 µM (inactive)
same,AC50,[14],0.471 µM (active)
same,AC50,[15],56 µM (active)
CCOc1cc2c3c(c1)C1(C(=O)N3C(C)(C)C=C2C)C(C#N)=C(N)Oc2cc(O)ccc21 (configuration not stated),CC50,[16],11.8 µM (active)
same,IC50,[17],> 69.5 µM (inactive)
same,IC50,[18],> 69.5 µM (inactive)
